Assay results from patent US9999656B2, “Treatment of short bowel syndrome patients with colon-in-continuity” (Shire-NPS Pharmaceuticals, Inc., priority 2004, dated 2018).

What was measured:
[1] = system: patients with short bowel syndrome (SBS); test: Safety monitoring (adverse events, laboratory, vital signs, ECGs, antibodies)
Text: During each inpatient period, patients underwent 72-hour nutrient balance and D-Xylose absorption studies, and a proximal or distal endoscopy to ascertain the condition of the intestinal mucosa and obtain biopsy samples. In jejunostomy patients, biopsies were obtained through the jejunostomy stoma or by upper gastrointestinal endoscopy. In patients with colon-in-continuity, colo-rectal biopsies were obtained. Teduglutide treatment began on Day 1 (immediately after the baseline period) and continued once-daily for 21 days. […] Patients were monitored for safety (adverse events, physical exams, vital signs, ECGs, laboratory results, and injection site examinations) during the inpatient periods and during outpatient visits on days 7 and 14.

[2] = Half-life / AUC (pharmacokinetics); format: in vivo
Protocol: This greater effect could be related to differences in dose and half-life of GLP-2 and teduglutide, respectively. In the pilot study with native GLP-2, 400 μg was given twice daily (corresponding to 0.013±0.002 mg/kg/day, a range of 0.011-0.017 mg/kg/day). The teduglutide doses in the current study were 3-10 times higher, ranging from 0.03 to 0.15 mg/kg/day. […] If area under the curve (AUC) is critical for the wet weight absorption effect, the AUC during teduglutide treatment may well be 200 times greater than the AUC when using native GLP-2. In this study, effects of teduglutide on energy and macronutrient absorption were minor compared to effects on wet weight absorption. […] Nonetheless, the effect of teduglutide on absolute energy absorption is 1.5 to 4-fold higher than with native GLP-2 (441±634 kJ/day ([105±151 kcal/day] p=0.09) at the given doses and treatment periods. Thus, in contrast to H2-receptor antagonists, proton-pump inhibitors and octreotide that only affect wet weight absorption, native GLP-2 and teduglutide seem to affect both intestinal wet weight and energy absorption, with an additional positive effect on wet weight absorption in patients already treated with these non-GLP-2 agonists.

[3] = system: patients with short bowel syndrome (SBS); test: 72-hour nutrient balance studies in open-label pilot study of teduglutide; format: in vivo, human; conditions: for Energy Absorption (% of intake), Effect of Treatment (Treatment minus Baseline) mean ± SD / Energy Absorption, Effect of Treatment (Treatment minus Baseline) mean ± SD / Energy Fecal, Effect of Treatment (Treatment minus Baseline) mean ± SD / Urine Wet Weight, Effect of Treatment (Treatment minus Baseline) mean ± SD / Wet Weight Absorption (% of intake), Effect of Treatment (Treatment minus Baseline) mean ± SD / Wet Weight Absorption, Effect of Treatment (Treatment minus Baseline) mean ± SD / Wet Weight Fecal, Effect of Treatment (Treatment minus Baseline) mean ± SD: Days 18-21 vs baseline; for decrease in fecal energy excretion compared to baseline: stated as reduction
Protocol: This was an open-label, pilot study to determine the safety and effect of teduglutide in patients with short bowel syndrome (SBS). The patient's history was reviewed and a physical examination performed to determine eligibility before inclusion in the study. Estimated residual small intestine and colon lengths were determined by reviewing operative reports and available radiographic studies. Eligible patients were admitted as inpatients to hospital wards or General Clinic Research Centers (GCRC) on three separate occasions, 18 days apart, for the last four days and three nights of the baseline period and at the end of the treatment and follow-up periods. Treatment consisted of recombinant teduglutide (supplied by NPS Allelix, Mississauga, ON, Canada) formulated as a lyophilized powder with L-histidine, mannitol, and monobasic and dibasic sodium phosphate (Lot 8502901). Water was added to reconstitute the drug for administration by subcutaneous (s.c.) injections in the abdomen or thigh. Ten SBS patients with jejunostomy received 0.03 mg/kg/d, 0.10 mg/kg/d or 0.15 mg/kg/d once daily for 21 days. Five SBS patients with ≥50% colon-in-continuity received teduglutide 0.10 mg/kg/d once daily for 21 days.
The 72-hour nutrient balance studies were completed with each patient eating their usual diet, calculated from a seven-day food diary completed by the patient during the screening period. It was intended that patients eat the same quantity and quality of food and beverages during each admission. During the 72-hour balance periods, all oral intake (duplicate meals and beverages and declined food), fecal/stomal output, and urine were collected and weighed. All stool samples were refrigerated during the collection period. Stools and diets were separately homogenized and analyzed for energy content (by bomb calorimetry), nitrogen (by the macro-Kjeldahl's method), fat (by the gravimetric technique), and sodium and potassium (by atomic absorption).
Using the SAS (Version 8.2; SAS Institute, Cary, N.C.) statistical program, a Student's paired t test was employed that compared treatment to baseline values, and follow-up to baseline values. No comparisons were made between patients on different doses or with different anatomy due to the limited number of patients in the study. Data are expressed as mean±SD. A value of p<0.05 was considered significant.

[4] = Group 2 SBS end-jejunostomy, N=10, 0.03-0.15 mg/kg/d s.c. once daily 21 days
[5] = Group 2 SBS end-jejunostomy, N=10, follow-up Days 39-42 vs baseline
[6] = Group 2 SBS end-jejunostomy, of N=10
[7] = Group 3 SBS ≥50% colon-in-continuity, N=5, 0.10 mg/kg/d s.c. once daily 21 days
[8] = Group 3 SBS ≥50% colon-in-continuity, N=5, follow-up Days 39-42 vs baseline

With `CC[C@H](C)[C@H](NC(=O)[C@H](Cc1ccccc1)NC(=O)[C@H](CC(=O)O)NC(=O)[C@H](CCCNC(=N)N)NC(=O)[C@H](C)NC(=O)[C@H](C)NC(=O)[C@H](CC(C)C)NC(=O)[C@H](CC(N)=O)NC(=O)[C@H](CC(=O)O)NC(=O)[C@H](CC(C)C)NC(=O)[C@@H](NC(=O)[C@@H](NC(=O)[C@H](CC(N)=O)NC(=O)[C@H](CCSC)NC(=O)[C@H](CCC(=O)O)NC(=O)[C@H](CC(=O)O)NC(=O)[C@H](CO)NC(=O)[C@H](Cc1ccccc1)NC(=O)[C@H](CO)NC(=O)CNC(=O)[C@H](CC(=O)O)NC(=O)CNC(=O)[C@@H](N)Cc1c[nH]cn1)[C@@H](C)O)[C@@H](C)CC)C(=O)N[C@@H](CC(N)=O)C(=O)N[C@@H](Cc1c[nH]c2ccccc12)C(=O)N[C@@H](CC(C)C)C(=O)N[C@H](C(=O)N[C@@H](CCC(N)=O)C(=O)N[C@H](C(=O)N[C@@H](CCCCN)C(=O)N[C@H](C(=O)N[C@H](C(=O)N[C@@H](CC(=O)O)C(=O)O)[C@@H](C)O)[C@@H](C)CC)[C@@H](C)O)[C@@H](C)CC` [teduglutide, [Gly2]hGLP-2] the antibodies to teduglutide ([1]; SBS patients, 21 days dosing) was “No antibodies to teduglutide were detected”, the “deaths and withdrawals due to adverse events” value ([1]; all patients) was “no deaths and no withdrawals due to adverse events” and the injection site reactions ([1]; in vivo) was “Three patients had minor injection site reactions”. The laboratory values ([1]; in vivo) was “No clinically significant abnormal laboratory values”, the “most common AEs” value ([1]; in vivo) was “edema of the lower limbs, and localized swelling of the jejunostomy nipple” and the “relation of serious AEs (catheter-related infection or complication, two patients) to drug” value ([1]; in vivo) was “None of these were judged to be related to teduglutide”. The “vital signs or ECGs” value ([1]; in vivo) was “No safety concerns were raised”, the “AUC during teduglutide treatment relative to AUC using native GLP-2” value ([2]; 'may well be', estimate) was roughly 200 times and the half-life ([2]; human, plasma, teduglutide, approximately) was 0.9 to 2.3 h. The “Energy Absorption (% of intake), Effect of Treatment (Treatment minus Baseline) mean ± SD” value [3, 4] was 5 ± 20 % of intake, the “Energy Absorption, Effect of Treatment (Treatment minus Baseline) mean ± SD” value [3, 4] was 363 ± 2656 kJ/day and the “Energy Fecal, Effect of Treatment (Treatment minus Baseline) mean ± SD” value [3, 4] was -532 ± 1703 kJ/day. The “Urine Wet Weight, Effect of Treatment (Treatment minus Baseline) mean ± SD” value [3, 4] was 680 ± 535 g/day, the “Wet Weight Absorption (% of intake), Effect of Treatment (Treatment minus Baseline) mean ± SD” value [3, 4] was 20±18 % of intake and the “Wet Weight Absorption, Effect of Treatment (Treatment minus Baseline) mean ± SD” value [3, 4] was 788 ± 551 g/day. The “Wet Weight Fecal, Effect of Treatment (Treatment minus Baseline) mean ± SD” value [3, 4] was -682 ± 911 g/day, the “Energy Absorption (% of intake), Effect at Follow up (Follow up minus Baseline) mean ± SD” value [3, 5] was −6 ± 12 % of intake and the “Energy Absorption, Effect at Follow up (Follow up minus Baseline) mean ± SD” value [3, 5] was -800 ± 2958 kJ/day. For the same compound, the “Energy Fecal, Effect at Follow up (Follow up minus Baseline) mean ± SD” value [3, 5] was 320 ± 1200 kJ/day, the “Urine Wet Weight, Effect at Follow up (Follow up minus Baseline) mean ± SD” value [3, 5] was 11 ± 287 g/day and the “Wet Weight Absorption (% of intake), Effect at Follow up (Follow up minus Baseline) mean ± SD” value [3, 5] was −9 ± 16 % of intake. For the same compound, the “Wet Weight Absorption, Effect at Follow up (Follow up minus Baseline) mean ± SD” value [3, 5] was -218 ± 577 g/day, the “Wet Weight Fecal, Effect at Follow up (Follow up minus Baseline) mean ± SD” value [3, 5] was 278 ± 496 g/day and the “Energy Absorption (% of intake), Patients With Beneficial Effect” value [3, 6] was 6. For the same compound, the “Energy Absorption (kJ/day), Patients With Beneficial Effect” value [3, 6] was 6, the “Energy Fecal, Patients With Beneficial Effect” value [3, 6] was 8 and the “Urine Wet Weight, Patients With Beneficial Effect” value [3, 6] was 8. For the same compound, the “Wet Weight Absorption (% of intake), Patients With Beneficial Effect” value [3, 6] was 8, the “Wet Weight Absorption (g/day), Patients With Beneficial Effect” value [3, 6] was 9 and the “Wet Weight Fecal, Patients With Beneficial Effect” value [3, 6] was 8. For the same compound, the “decrease in fecal wet weight compared to baseline” value ([3]; Group 2 SBS end-jejunostomy, 21-day treatment, stated as decrease) was 682 ± 911 g/day, the “decrease in fecal energy excretion compared to baseline” value ([3]; Group 2 SBS end-jejunostomy, p>0.05) was 532 ± 1703 kJ/day and the “decrease in fecal energy excretion compared to baseline” value ([3]; Group 3 SBS colon-in-continuity) was 1343 ± 916 kJ/day. The “Energy Absorption (% of intake), Effect of Treatment (Treatment minus Baseline) mean ± SD” value [3, 7] was 10±7 % of intake, the “Energy Absorption, Effect of Treatment (Treatment minus Baseline) mean ± SD” value [3, 7] was 1027 ± 798 kJ/day and the “Energy Fecal, Effect of Treatment (Treatment minus Baseline) mean ± SD” value [3, 7] was -1343 ± 916 kJ/day. The “Urine Wet Weight, Effect of Treatment (Treatment minus Baseline) mean ± SD” value [3, 7] was 461 ± 200 g/day, the “Wet Weight Absorption (% of intake), Effect of Treatment (Treatment minus Baseline) mean ± SD” value [3, 7] was 26±16 % of intake and the “Wet Weight Absorption, Effect of Treatment (Treatment minus Baseline) mean ± SD” value [3, 7] was 751 ± 328 g/day. The “Wet Weight Fecal, Effect of Treatment (Treatment minus Baseline) mean ± SD” value [3, 7] was -822 ± 341 g/day, the “Energy Absorption (% of intake), Effect at Follow up (Follow up minus Baseline) mean ± SD” value [3, 8] was 10 ± 17 % of intake and the “Energy Absorption, Effect at Follow up (Follow up minus Baseline) mean ± SD” value [3, 8] was 907 ± 1146 kJ/day.
